From ChEMBL document CHEMBL4823304, “Phytochemicals from the flowers of Prunus persica (L.) Batsch: Anti-adipogenic effect of mandelamide on 3T3-L1 preadipocytes” (Bioorg Med Chem Lett, 2021)
Activity calls are given as the source filed them. The rule behind the calls is not given here.

Assays:
3T3-L1 [1] = assay: Inhibition of preadipocyte differentiation in mouse 3T3-L1 cells assessed as lipid droplet accumulation at 100 uM incubated for 8 days by Oil Red O staining method relative to untreated control; type: functional
3T3-L1 [2] = assay: Cytotoxicity against in mouse 3T3-L1 cells assessed as reduction in cell viability at 100 uM incubated for 24 hrs by MTT assay relative to control; type: cell-based; conditions: 3t3-l1, 24 h
3T3-L1 [3] = assay: Anti-adipogenic activity against mouse 3T3-L1 cells assessed as decrease in ERK protein expression measured after 8 days by Western blotting analysis relative to control; type: functional, cell-based; conditions: time 8.0 day
3T3-L1 [4] = assay: Anti-adipogenic activity against mouse 3T3-L1 cells assessed as decrease in PPARgamma protein expression measured after 8 days by Western blotting analysis relative to control; type: functional, cell-based; conditions: time 8.0 day
3T3-L1 [5] = assay: Anti-adipogenic activity against mouse 3T3-L1 cells assessed as decrease in p-ERK protein expression measured after 8 days by Western blotting analysis relative to control; type: functional, cell-based; conditions: time 8.0 day
3T3-L1 [6] = assay: Anti-adipogenic activity against mouse 3T3-L1 cells assessed as decrease in P38 protein expression measured after 8 days by Western blotting analysis relative to control; type: functional, cell-based; conditions: time 8.0 day
3T3-L1 [7] = assay: Inhibition of preadipocyte differentiation in mouse 3T3-L1 cells assessed as lipid droplet accumulation incubated for 8 days by Oil Red O staining method relative to untreated control; type: functional, cell-based; conditions: 3T3-L1, 192 h
3T3-L1 [8] = assay: Anti-adipogenic activity against mouse 3T3-L1 cells assessed as decrease in GR protein expression measured after 8 days by Western blotting analysis relative to control; type: functional, cell-based; conditions: time 8.0 day
3T3-L1 [9] = assay: Anti-adipogenic activity against mouse 3T3-L1 cells assessed as decrease in p-JNK protein expression measured after 8 days by Western blotting analysis relative to control; type: functional, cell-based; conditions: time 8.0 day
3T3-L1 [10] = assay: Anti-adipogenic activity against mouse 3T3-L1 cells assessed as decrease in JNK protein expression measured after 8 days by Western blotting analysis relative to control; type: functional, cell-based; conditions: time 8.0 day
3T3-L1 [11] = assay: Anti-adipogenic activity against mouse 3T3-L1 cells assessed as decrease in C/EBPbeta protein expression measured after 8 days by Western blotting analysis relative to control; type: functional, cell-based; conditions: time 8.0 day
3T3-L1 [12] = assay: Anti-adipogenic activity against mouse 3T3-L1 cells assessed as decrease in p-P38 protein expression measured after 8 days by Western blotting analysis relative to control; type: functional, cell-based; conditions: time 8.0 day
3T3-L1 [13] = assay: Anti-adipogenic activity against mouse 3T3-L1 cells assessed as decrease in C/EBPalpha protein expression measured after 8 days by Western blotting analysis relative to control; type: functional, cell-based; conditions: time 8.0 day

For O[C@@H]1[C@@H](O)[C@H](OCc2ccccc2)O[C@H](CO[C@H]2OC[C@H](O)[C@@H](O)[C@@H]2O)[C@H]1O, the Activity (3T3-L1 [1]; time 8.0 day) was “Active” and the Activity (3T3-L1 [2]) was “Non-Toxic”.

O=C(/C=C/c1ccc(O)c(O)c1)O[C@@H]1C[C@](O)(C(=O)O)C[C@@H](O)[C@H]1O [CHLOROGENIC ACID] was tested, and the Activity (3T3-L1 [1]; time 8 day) was 58.44% and the Activity (3T3-L1 [2]) was “Non-Toxic”.

In the case of O=C1C[C@@H](c2ccc(O)cc2)Oc2cc(O)cc(O)c21 [NARINGENIN], the Activity (3T3-L1 [1]; time 8 day) is reported as 44.21% and the Activity (3T3-L1 [2]) is reported as “Non-Toxic”.

O=C(O)[C@H](O[C@@H]1O[C@H](CO)[C@@H](O)[C@H](O)[C@H]1O)c1ccccc1 was tested, and the Activity (3T3-L1 [1]; time 8.0 day) was “Active” and the Activity (3T3-L1 [2]) was “Non-Toxic”.

NC(=O)[C@H](O[C@@H]1O[C@H](CO[C@@H]2O[C@H](CO)[C@@H](O)[C@H](O)[C@H]2O)[C@@H](O)[C@H](O)[C@H]1O)c1ccccc1 was tested, and the Activity (3T3-L1 [1]; time 8.0 day) was “Active” and the Activity (3T3-L1 [2]) was “Non-Toxic”.

With O=c1ccn([C@@H]2O[C@H](CO)[C@@H](O)[C@H]2O)c(=O)[nH]1 [URIDINE] the Activity (3T3-L1 [1]; time 8.0 day) was “Active” and the Activity (3T3-L1 [2]) was “Non-Toxic”.

NC(=O)[C@H](O)c1ccccc1 was tested, and the Activity (3T3-L1 [3]) was “Dose-Dependent Effect”, the Activity (3T3-L1 [4]) was “Dose-Dependent Effect” and the Activity (3T3-L1 [5]) was “Dose-Dependent Effect”. The Activity (3T3-L1 [6]) was “Dose-Dependent Effect”, the Activity (3T3-L1 [1]; time 8 day) was 12.23% and the IC50 (3T3-L1 [7]) was 36 µM. The Activity (3T3-L1 [8]) was “Dose-Dependent Effect”, the Activity (3T3-L1 [9]) was “Dose-Dependent Effect” and the Activity (3T3-L1 [10]) was “Dose-Dependent Effect”. The Activity (3T3-L1 [11]) was “Dose-Dependent Effect”, the Activity (3T3-L1 [12]) was “Dose-Dependent Effect” and the Activity (3T3-L1 [2]) was “Non-Toxic”. For the same molecule, the Activity (3T3-L1 [13]) was “Dose-Dependent Effect”.

O=C1C[C@@H](c2ccc(O)cc2)Oc2cc(O[C@@H]3O[C@H](CO)[C@@H](O)[C@H](O)[C@H]3O)cc(O)c21 [PRUNIN] was tested, and the Activity (3T3-L1 [1]; time 8.0 day) was “Active” and the Activity (3T3-L1 [2]) was “Non-Toxic”.

In the case of O=c1c(O[C@@H]2O[C@H](CO)[C@@H](O)[C@H](O)[C@H]2O)c(-c2ccc(O)cc2)oc2cc(O)cc(O)c12 [ASTRAGALIN], the Activity (3T3-L1 [1]; time 8.0 day) is reported as “Active” and the Activity (3T3-L1 [2]) is reported as “Non-Toxic”.

For COc1cc(/C=C/C(=O)O)ccc1O [FERULATE], the Activity (3T3-L1 [1]; time 8 day) was 58.22% and the Activity (3T3-L1 [2]) was “Non-Toxic”.

For NC(=O)[C@H](O[C@@H]1O[C@H](CO)[C@@H](O)[C@H](O)[C@H]1O)c1ccccc1, the Activity (3T3-L1 [1]; time 8.0 day) was “Active” and the Activity (3T3-L1 [2]) was “Non-Toxic”.

For COC(=O)/C=C/c1ccc(O)c(O)c1 [METHYLCAFFEATE], the Activity (3T3-L1 [1]; time 8 day) was 34.67% and the Activity (3T3-L1 [2]) was “Non-Toxic”.

C[C@@H]1O[C@@H](Oc2c(-c3ccc(O)cc3)oc3cc(O)cc(O)c3c2=O)[C@H](O)[C@H](O)[C@H]1O [AFZELIN] was tested, and the Activity (3T3-L1 [1]; time 8.0 day) was “Active” and the Activity (3T3-L1 [2]) was “Non-Toxic”.

In the case of C[C@@H]1O[C@@H](OC[C@H]2O[C@@H](Oc3c(-c4ccc(O)cc4)oc4cc(O)cc(O)c4c3=O)[C@H](O)[C@@H](O)[C@@H]2O)[C@H](O)[C@H](O)[C@H]1O [NICOTIFLOROSIDE], the Activity (3T3-L1 [1]; time 8.0 day) is reported as “Active” and the Activity (3T3-L1 [2]) is reported as “Non-Toxic”.
